“Also recorded” adds a separate entry of the source. Like-named read-outs stand apart in the source and are kept apart here.

This is an account of results in patent publication US5849737A, “Compositions and methods for treating pain” (priority 1995, dated 1998).

The subject of one series is P450 PA(P45OIA2) enzyme. The settings on record: lidocaine metabolite formation; cited from earlier work.
Series [1] relates to tactile allodynia (paw withdrawal thresholds). Put plainly: Mechanical allodynia after single i.p. dose in SD rats (left L5/L6 spinal nerve ligation). The series is classed as in vivo.
The test system is the same in series [2]. Put plainly: Mechanical allodynia after single i.p. dose in DA rats (left L5/L6 spinal nerve ligation). The series is classed as in vivo.
The conditions of series [3]: DA rats; some species of rats; cited from earlier work.
Series [4] has as its system tactile allodynia (paw withdrawal thresholds). Put plainly: Tactile allodynia (50% paw withdrawal threshold, von Frey) after intrathecal drug, L5/L6 spinal nerve ligated rats. The series is classed as in vivo, Male Harlan Sprague-Dawley rats. On the procedure:
Male Harlan Sprague-Dawley rats were used (100-200 g). Rats were housed 2-3 to a cage with corn cob bedding and Purina rat chow and water ad libitum, in a standard facility with a 12 h/ 12 h day/night cycle. After surgical procedures involving chronic indwelling catheter insertion, animals were housed singly to prevent catheter damage.
Rats were allowed to recover 5-7 days before further testing or surgeries.
The catheters were 9 cm in intrathecal length and terminated near the lumbar enlargement. The rostral 3 cm of catheter was tunneled under the skin to externalize between the ears. Rats with neurologic deficits were discarded.
Monoethylglycinexylidide (MEGX) was dissolved in physiologic saline; 3-hydroxylidocaine (3-OH L) was dissolved in DMSO for intravenous administration.
Intravenous drugs were delivered to awake, unrestrained rats by slow infusion using a syringe pump (Harvard apparatus 22). Intrathecal drugs were delivered to awake, briefly restrained rats in a volume of 10 μl, followed by 10 μl of vehicle flush, using a calibrated tubing extension with a 30-gauge adapter fitting the implanted intrathecal catheter, attached to a geared Hamilton 100 μl glass syringe. IT drug delivery was monitored by observing the advancement of a small air bubble down the tubing.
Rats were placed in a plastic cage with an open wire mesh bottom and allowed to accommodate for approximately fifteen minutes. […] In brief, von Frey hairs were sequentially applied using an up-and-down paradigm to the left mid-plantar hindpaw with sufficient force to cause slight filament buckling. Positive responses were noted if the paw was sharply withdrawn. […] Otherwise, PWT were calculated by noting the stimulus level at which the first change in behavior occurred, collecting four additional responses to the continued up-and-down oscillation of stimulus presentation around the response threshold, and interpolating the 50% response threshold. […] The following equation was used to compute %MPE: [formula]
Plasma drug levels and PWT were correlated using linear regression. Serially measured PWT and %MPE were compared using repeated measures ANOVA.

The next series can be described thus: Solubility. As to conditions: IT vehicle 10% DMSO, 25% propylene glycol, 25% ethanol, 40% saline; injected volume 10 μl. The series is classed as physicochemical. The text has this:
The free base forms of the compounds of general formula I are not water-soluble; for example, it was necessary to dissolve the free base of 3-hydroxylidocaine in a vehicle containing an empirically determined mixture of ethanol, dimethyl sulfoxide, propylene glycol and saline for application to the rat spinal cord. The physiologically-acceptable salt forms of the compounds of general formula I employed in accordance with the present invention, in contrast, are generally water-soluble to at least some degree, and the solubility properties thereof can be in many cases improved by conjugation. Unlike the free base forms of the compounds of general formula I, the salt forms may be administered by a variety of known routes [e.g., oral intravenous, intrathecal, local (e.g., intraneuromal), epidural, transdermal, etc.] as would be readily appreciated by those skilled in the art. As is conventional practice in the art, the active agent of general formula I is typically administered in a pharmaceutically acceptable carrier or excipient (e.g., saline).

For series [5], the system named is tactile allodynia (paw withdrawal thresholds). Put plainly: Tactile allodynia (50% paw withdrawal threshold, von Frey) after intravenous drug, L5/L6 spinal nerve ligated rats. The series is classed as in vivo, Male Harlan Sprague-Dawley rats. An excerpt:
For intravascular access, external jugular catheters were fashioned from PE-50 tubing and inserted into an external jugular vein under halothane/oxygen anesthesia. Arterial catheters were also fashioned from PE-50 with a small bouton 1 cm from the intravascular end for suture securing; they were inserted into a carotid artery, taking care to spare the surrounding nerves. All catheters were flushed with heparinized saline (10 U/ml) and tunneled subcutaneously to emerge at the posterior base of the neck, and capped when not in use. […] Rats were placed in a plastic cage with an open wire mesh bottom and allowed to accommodate for approximately fifteen minutes. A series of 8 von Frey filaments with logarithmically incremental stiffness (0.41, 0.70, 1.20, 2.00, 3.63, 5.50, 8.50, and 15.10 g) (Stoelting, Wood Dale, Ill.) was used to determine the 50% threshold for paw withdrawal to light mechanical stimuli (PWT). In brief, von Frey hairs were sequentially applied using an up-and-down paradigm to the left mid-plantar hindpaw with sufficient force to cause slight filament buckling. Positive responses were noted if the paw was sharply withdrawn. […] Otherwise, PWT were calculated by noting the stimulus level at which the first change in behavior occurred, collecting four additional responses to the continued up-and-down oscillation of stimulus presentation around the response threshold, and interpolating the 50% response threshold. […] The following equation was used to compute %MPE: [formula] Plasma drug levels and PWT were correlated using linear regression. Serially measured PWT and %MPE were compared using repeated measures ANOVA.

For series [6] the following is noted: cited from earlier work.

In the case of `CCN(CC)CC(=O)Nc1c(C)ccc(O)c1C` [3-OH L, 3-hydroxylidocaine], the “enzyme producing the metabolite 3-OH L” value in the series on P450 PA(P45OIA2) enzyme is reported as “produced by the P450 PA(P45OIA2) enzyme”. Besides, the “duration of significant effect on allodynia, SD rats” value in series [1] (3-OHL 15 mg/kg i.p., N=6, P<0.05, followed for 7 days) was “up to 7 days”. Also, the “magnitude and duration of effect of 15 mg/kg 3-OHL relative to 60 mg/kg lidocaine in SD rats” value in series [1] (i.p. (FIG. 7)) is “apparently shorter duration”. The “effect on tactile allodynia, SD rats” value in series [1] (single i.p. dose, lidocaine 60 mg/kg, 3-OHL 15 mg/kg (P<0.05)) is given as “persistently reduced allodynia in both strains; also recorded: persistent suppression of allodynia”. Also, the “duration of significant effect on allodynia, DA rats” value in series [2] (3-OHL 15 mg/kg i.p., N=5, P<0.002, followed for 7 days) is listed as “up to 7 days”. The “effect on tactile allodynia, DA rats” value in series [2] (single i.p. dose, lidocaine 60 mg/kg, 3-OHL 15 mg/kg (P<0.002)) is on record as “persistently reduced allodynia in both strains; also recorded: persistent suppression of allodynia”. The “3-hydroxylation / production of 3-OH L in rats” value in series [3] is reported as “Some species of rats predominantly produce 3-OH L”. Further, the “persistence of allodynia suppression after single IT dose” value in series [4] (3-OH L 58 μg IT single dose, follow-up period) is 5 days. Also, in series [4] (3-OH L 58 μg IT, N=6, baseline 2.7±0.2, vehicle 2.2±0.5, P=0.0008, unit not given), the “thresholds at 5 days post treatment” value is 9.3±2.5. Moreover, in series [4] (3-OH L 58 μg IT, baseline 2.3±0.39 g, P<0.0001), the “PWT at 60 minutes after IT treatment” value came to 10.66 ± 2.3 g. For the same compound, the “duration of effect on allodynia, IT route” value in series [4] (IT) is listed as “long lasting effect by the IT route”. In addition, the “effect on allodynia thresholds after IT delivery” value in series [4] (IT, lidocaine 500 μg, MEGX 500 μg, 3-OH L 58 μg) is “suppressed allodynia after IT administration; also recorded: significantly effective at suppressing allodynia”. Moreover, the “highest dose soluble in the vehicle” value in “Solubility” turned out to be 58 µg. In addition, the PWT after infusion in series [5] (3-OH L IV in DMSO, 20 mg/kg total (FIG. 2), N=4, baseline 1.57±0.5 g, P=<0.0001) worked out at 15 ± 0 g. The “duration of effect on allodynia, IV route” value in series [5] (IV) is “not by the IV route”. Also, the “potency and onset of allodynia suppression relative to lidocaine” value in series [5] (IV 3-OH L compared with parent compound) is recorded as “more potent with regard to this effect; also recorded: far more rapid onset”. Also, the “allodynia suppression by IV delivery” value in series [5] (IV, N=4) was “highly active when administered intravenously; also recorded: both potent and effective at suppressing allodynia; also recorded: complete normalization”. For the same compound, the “production of 3-OH L in humans” value in series [6] is recorded as “humans do produce some 3-OH L”; in series [6] (listed as 3-OHL) it was “very small quantities”.
